Measured values as given in ChEMBL document CHEMBL1129583, “Nonclassical 2,4-diamino-8-deazafolate analogues as inhibitors of dihydrofolate reductases from rat liver, Pneumocystis carinii, and Toxoplasma gondii” (J Med Chem, 1996).

Legend:
Pneumocystis carinii = test: Ratio of inhibitory concentration of rat liver and Pneumocystis carinii DHFR.
[1] = biological target: T1, Bifunctional dihydrofolate reductase-thymidylate synthase (Toxoplasma gondii, UniProt Q07422)
T1 sequence (Q07422 whole entry): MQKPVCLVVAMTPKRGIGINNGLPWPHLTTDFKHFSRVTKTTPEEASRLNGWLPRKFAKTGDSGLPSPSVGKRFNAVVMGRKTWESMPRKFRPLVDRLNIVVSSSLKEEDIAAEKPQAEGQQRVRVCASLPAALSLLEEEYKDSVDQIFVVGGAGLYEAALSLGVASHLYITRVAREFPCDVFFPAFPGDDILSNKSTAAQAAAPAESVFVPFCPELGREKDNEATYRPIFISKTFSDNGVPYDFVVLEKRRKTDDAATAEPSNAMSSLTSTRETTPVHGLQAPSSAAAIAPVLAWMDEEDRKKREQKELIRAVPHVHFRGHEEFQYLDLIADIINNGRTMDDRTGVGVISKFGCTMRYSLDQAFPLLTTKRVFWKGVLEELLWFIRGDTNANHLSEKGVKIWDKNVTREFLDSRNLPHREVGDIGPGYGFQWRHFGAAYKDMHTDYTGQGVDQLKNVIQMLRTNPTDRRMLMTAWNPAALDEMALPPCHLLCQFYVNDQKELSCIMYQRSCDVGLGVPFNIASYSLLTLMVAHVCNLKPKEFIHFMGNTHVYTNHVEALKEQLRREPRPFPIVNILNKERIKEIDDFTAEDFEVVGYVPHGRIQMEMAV
Description: Inhibitory activity against Toxoplasma gondii dihydrofolate reductase.

Dihydrofolate reductase = biological target: T2, Dihydrofolate reductase (Rattus norvegicus, UniProt Q920D2)
T2 sequence (Q920D2 whole entry): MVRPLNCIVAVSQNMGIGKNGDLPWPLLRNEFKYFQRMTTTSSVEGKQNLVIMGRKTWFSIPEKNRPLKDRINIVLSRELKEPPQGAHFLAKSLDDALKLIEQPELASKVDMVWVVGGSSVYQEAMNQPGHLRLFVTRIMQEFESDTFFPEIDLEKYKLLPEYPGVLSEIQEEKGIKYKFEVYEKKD
Description: Inhibitory activity against rat liver dihydrofolate reductase.

[2] = Ratio of inhibitory concentration of Rat liver and Pneumocystis carinii DHFR
[3] = Ratio of inhibitory concentration of Rat liver and Toxoplasma gondii DHFR
[4] = pRatio of inhibitory concentration of Rat liver and Pneumocystis carinii DHFR

| SMILES | Selectivity (Pneumocystis carinii) | IC50 [1] [nM] | IC50 (Dihydrofolate reductase) [nM] | Selectivity [2] | Selectivity [3] | Selectivity [4] |
| --- | --- | --- | --- | --- | --- | --- |
| CN(Cc1ccc2nc(N)nc(N)c2n1)c1ccc(C(=O)C(F)(F)F)cc1 | 0.13 | 46 | 32 | – | – | – |
| COc1cc(NCc2ccc3nc(N)nc(N)c3n2)cc(OC)c1OC | 0.1 | 40 | 200 | – | – | – |
| Nc1nc(N)c2nc(CSc3ccccc3)cnc2n1 | 25.9 | 770 | 246000 | – | – | – |
| Nc1nc(N)c2nc(CNc3cccc4ccccc34)ccc2n1 | – | 26 | 40 | 0.17 | 1.54 | – |
| CN(Cc1ccc2nc(N)nc(N)c2n1)c1ccc(Cl)cc1Cl | 0.12 | 50 | 58 | – | – | – |
| CC(=O)c1ccc(NCc2ccc3nc(N)nc(N)c3n2)cc1 | 0.01 | 27 | 2.5 | – | – | – |
| COc1cccc(N(C)Cc2ccc3nc(N)nc(N)c3n2)c1 | 0.36 | 15 | 35 | – | – | – |
| Nc1nc(N)c2nc(CNc3cccc(Cl)c3)ccc2n1 | 0.07 | 130 | 140 | – | – | – |
| COc1ccc(OC)c(NCc2ccc3nc(N)nc(N)c3n2)c1 | 0.06 | 120 | 280 | – | – | – |
| Nc1nc(N)c2nc(CSc3ccc4ccccc4c3)ccc2n1 | 0.23 | 48 | 86 | – | – | – |
| Nc1nc(N)c2nc(CNc3c(Cl)cc(Cl)cc3Cl)ccc2n1 | 0.29 | 46 | 570 | – | – | – |
| Nc1nc(N)c2nc(CNc3cc(Cl)c(Cl)c(Cl)c3)ccc2n1 | 0.07 | 87 | 44 | – | – | – |
| COc1ccc(N(C)Cc2ccc3nc(N)nc(N)c3n2)cc1 | 0.072 | 16 | 18 | – | – | – |
| CC(=O)c1ccc(N(C)Cc2ccc3nc(N)nc(N)c3n2)cc1 | 0.04 | 15 | 5.1 | – | – | – |
| Nc1nc(N)c2nc(CNc3ccc(Cl)c(Cl)c3)ccc2n1 | 0.13 | 57 | 54 | – | – | – |
| COc1ccc(N(C)Cc2ccc3nc(N)nc(N)c3n2)cc1OC | 0.02 | 9.8 | 2.7 | – | – | – |
| CN(Cc1ccc2nc(N)nc(N)c2n1)c1cc(Cl)c(Cl)c(Cl)c1 | 0.35 | 38 | 87 | – | – | – |
| CN(Cc1ccc2nc(N)nc(N)c2n1)c1ccc2ccccc2c1 | 0.14 | 16 | 7.2 | – | – | – |
| Nc1nc(N)c2nc(CNc3cc(Cl)ccc3Cl)ccc2n1 | 0.13 | 91 | 200 | – | – | – |
| CN(Cc1ccc2nc(N)nc(N)c2n1)c1c(Cl)cccc1Cl | 0.28 | 30 | 48 | – | – | – |
| C#CCN(Cc1ccc2nc(N)nc(N)c2n1)c1ccc(C(C)=O)cc1 | 0.07 | 20 | 15 | – | – | – |
| Nc1nc(N)c2nc(CNc3ccccc3Cl)ccc2n1 | 0.26 | 110 | 140 | – | – | – |
| CN(Cc1ccc2nc(N)nc(N)c2n1)c1ccc(Cl)c(Cl)c1 | 0.45 | 27 | 17 | – | – | – |

| SMILES | Selectivity (Pneumocystis carinii) | IC50 [1] [nM] | IC50 (Dihydrofolate reductase) [nM] | Selectivity [2] | Selectivity [3] | Selectivity [4] |
| --- | --- | --- | --- | --- | --- | --- |
| CN(Cc1ccc2nc(N)nc(N)c2n1)c1ccccc1Cl | 0.57 | 15 | 120 | – | – | – |
| CN(Cc1ccc2nc(N)nc(N)c2n1)c1ccccc1 | 0.08 | 8.4 | 24 | – | – | – |
| Nc1nc(N)c2nc(CNc3ccc(Cl)cc3Cl)ccc2n1 | 0.12 | 50 | 88 | – | – | – |
| COc1ccc(NCc2ccc3nc(N)nc(N)c3n2)c(OC)c1 | 0.06 | 140 | 320 | – | – | – |
| COc1ccc(N(C)Cc2ccc3nc(N)nc(N)c3n2)c(OC)c1 | 0.1 | 14 | 16 | – | – | – |
| CN(Cc1ccc2nc(N)nc(N)c2n1)c1cc(Cl)ccc1Cl | 0.31 | 25 | 47 | – | – | – |
| COc1ccc(SCc2cnc3nc(N)nc(N)c3c2C)cc1 | 0.93 | 63 | 520 | – | – | – |
| COc1ccc(NCc2ccc3nc(N)nc(N)c3n2)cc1 | 0.09 | 54 | 73 | – | – | – |
| Nc1nc(N)c2nc(CSc3ccccc3)ccc2n1 | 0.26 | 130 | 520 | – | – | – |
| COc1ccc(NCc2ccc3nc(N)nc(N)c3n2)cc1OC | 0.07 | 90 | 60 | – | – | – |
| Nc1nc(N)c2nc(CNc3ccccc3)ccc2n1 | 0.15 | 85 | 260 | – | – | – |
| C#CCN(Cc1ccc2nc(N)nc(N)c2n1)c1ccc(C(=O)C(F)(F)F)cc1 | 0.06 | 54 | 7.5 | – | – | – |
| COc1ccccc1N(C)Cc1ccc2nc(N)nc(N)c2n1 | 0.24 | 26 | 120 | – | – | – |
| COc1cc(N(C)Cc2ccc3nc(N)nc(N)c3n2)cc(OC)c1OC | 0.2 | – | – | – | – | – |
| Nc1nc(N)c2nc(CNc3ccc4ccccc4c3)ccc2n1 | – | 160 | 210 | 0.13 | 1.31 | – |
| Nc1nc(N)c2nc(CNc3c(Cl)cccc3Cl)ccc2n1 | – | 28 | 82 | – | – | 0.082 |
| COc1ccc(OC)c(N(C)Cc2ccc3nc(N)nc(N)c3n2)c1 | 0.24 | 25 | 50 | – | – | – |
| CN(Cc1ccc2nc(N)nc(N)c2n1)c1c(Cl)cc(Cl)cc1Cl | 0.43 | 44 | 52 | – | – | – |
| Nc1nc(N)c2nc(CSc3cccc4ccccc34)ccc2n1 | 0.34 | 49 | 160 | – | – | – |
| COc1cccc(NCc2ccc3nc(N)nc(N)c3n2)c1 | 0.12 | 100 | 200 | – | – | – |
| CN(Cc1ccc2nc(N)nc(N)c2n1)c1cccc2ccccc12 | 0.18 | 18 | 7.3 | – | – | – |
| COc1ccccc1NCc1ccc2nc(N)nc(N)c2n1 | 0.16 | 120 | 420 | – | – | – |
| CN(Cc1ccc2nc(N)nc(N)c2n1)c1cccc(Cl)c1 | 0.032 | – | – | – | – | – |
